In the experiment the test system is Jurkat T cells. In kind it is cell-based, human. The note with it: IL-2 production level in treated group compared to control group, 48 hours treatment, then anti-CD3/anti-CD28 12 hours. An excerpt: Two preliminary screens were designed and performed.
To construct “blood chemical compound library for cell-based screening purposes, components such as antibodies that are difficult to distinguish due to a wide variety, and some supplements that only function at a whole organism level including fish oils and herbs were excluded. Physiological ranges of serum levels of individual blood chemicals are available in the human metabolome database (https://hmdb.ca/) and applied in the experimental design. For first screen 1a, Jurkat T cells were treated with blood chemical library for 48 hours and then activated with 2.5 μg/mL anti-CD3 and 0.5 μg/mL anti-CD28 antibodies for another 12 hours, followed by measurement of IL-2 level in medium supernatant using ELISA kit (Biolegend). For first screen 1b, 1×10^5 PD-1^+ Jurkat T cells were co-cultured with 2×10^4 H596 (PD-L1^+) cells in a well of 96-well plate for 60 hours, and then activated with 2.5 μg/mL anti-CD3 and 0.5 μg/mL anti-CD28 antibodies for another 12 hours, followed by measurement of IL-2 level in medium supernatant using ELISA kit. Please also refer to Resources Table and Table 1-2 for more details.

Read-outs that look alike come from different tables or passages of the source.

In the case of `CC[N+](CC)(CC)CC.O=S(=O)([O-])O`, the “Relative changed percentage (%)” value is on record as −35.95%.
Same read-out and setting: then 2-DEOXY-L-RIBOSE/Deoxycytidine, with 36.7%; and `O=C(O)CCCCC1CCSS1` (racemic) [DL-6,8-Thioctic Acid], with −4.135%; and `O=C(O)CC(O)C(=O)O` (racemic) [DL-MALIC ACID], with 40.01%.
Take `CC(O)CC(=O)O` (centres unmarked) [3-HYDROXYBUTYRIC ACID]: the “Relative changed percentage (%)” value turned out to be 5.082%.
With `Cl.NCCc1ccc(O)c(O)c1` [3-HYDRO[…]/dopamine, 3-HYDRO[…]], the “Relative changed percentage (%)” value is reported as 18.78%.
The same measure, in the same setting: the value for `C[C@]12CCC(=O)C[C@@H]1CC[C@@H]1[C@@H]2CC[C@]2(C)[C@@H](O)CC[C@@H]12` [5ALPHA-DIHYDROTESTOSTERONE (DIIT)/DIIT, 5ALPHA-DIHYDROTESTOSTERONE] was −3.457%; that for `C[C@]12CCC(=O)C=C1CC[C@@H]1[C@@H]2CC[C@@]2(C)[C@H]1CC[C@]2(O)C(=O)CO` [11-DEOXYCORTISOL/Cortexolone, 11-DEOXYCORTISOL] was 21.85%; that for `CC(=O)[C@@]1(O)CC[C@H]2[C@@H]3CCC4=CC(=O)CC[C@]4(C)[C@H]3CC[C@@]21C` [17A-HYDROXYPROGESTERONE] was 41.36%.
As for `Cc1cc(O)cc2c1O[C@](C)(CCC[C@H](C)CCC[C@H](C)CCCC(C)C)CC2` [(+)-DELTA-TOCOPHEROL], the “Relative changed percentage (%)” value is recorded as 41.42%.
Regarding `Cc1c(O)cc2c(c1C)O[C@](C)(CCC[C@H](C)CCC[C@H](C)CCCC(C)C)CC2` [(+)-GAMMA-TOCOPHEROL], the “Relative changed percentage (%)” value is on record as 1.56%.
Same read-out and setting: the value for `Cl.NCCc1c[nH]c2ccc(O)cc12` [-HYDROXYTRYPTAMINE HYDROCHLORIDE] was −22.39%.
Same read-out and setting: then `CC1=CCCC(C)(C)C1/C=C/C(C)=C/C=C/C(C)=C/C=C/C=C(C)/C=C/C=C(C)/C=C/C1=C(C)CCCC1(C)C` (centres unmarked) [A-CAROTENE], with 6.561%; and `CC1=C[C@H](O)CC(C)(C)C1/C=C/C(C)=C/C=C/C(C)=C/C=C/C=C(C)/C=C/C=C(C)/C=C/C1=C(C)CCCC1(C)C` (some centres unmarked) [A-CRYPTOXANTHIN], with 29.1%; and `CC(C)=O` [ACETONE], with −31.07%.
With `CC(=O)OCC[N+](C)(C)C.[Cl-]` [ACE[…]], the “Relative changed percentage (%)” value is −8.939%.
`Nc1ncnc2c1ncn2[C@@H]1O[C@H](CO)[C@@H](O)[C@H]1O` [ADENOSINE FREE BASE]: the “Relative changed percentage (%)” value is given as 3.704%.
Same read-out and setting: the value for `CCO` [ALCOHOL] was 9.841%; that for `C[C@]12CCC(=O)C=C1CC[C@@H]1[C@@H]2CC[C@]2(C)C(=O)CC[C@@H]12` [ANDROSTENEDIONE] was 25.93%.
The same measure, in the same setting: the value for `CC[C@H](C)[C@H](NC(=O)[C@H](Cc1ccc(O)cc1)NC(=O)[C@@H](NC(=O)[C@H](CCCNC(=N)N)NC(=O)[C@@H](N)CC(=O)O)C(C)C)C(=O)N[C@@H](Cc1cnc[nH]1)C(=O)N1CCC[C@H]1C(=O)N[C@@H](Cc1ccccc1)C(=O)O` [ANGIOTENSIN II HUMAN] was 17.25%; that for `Nc1ncnc2c1ncn2[C@@H]1O[C@H](COP(=O)([O-])OP(=O)([O-])OP(=O)(O)O)[C@@H](O)[C@H]1O.[Na+].[Na+]` [Adenosine 5′-Triphosphate Disodium] was −38.28%; that for `CC/C=C\C/C=C\C/C=C\CCCCCCCC(=O)O` [Alpha-linolenic acid] was −24.53%.
Same read-out and setting: then `CCCCC/C=C\C/C=C\C/C=C\C/C=C\CCCC(=O)O` [Arachidonic acid], with 4.583%.
Regarding `CC1=C(/C=C/C(C)=C/C=C/C(C)=C/C=C/C=C(C)/C=C/C=C(C)/C=C/C2=C(C)C(=O)[C@@H](O)CC2(C)C)C(C)(C)C[C@H](O)C1=O` [Astaxanthin], the “Relative changed percentage (%)” value was 12.26%.
Still for that read-out and setting: the value for `CC1=C(/C=C/C(C)=C/C=C/C(C)=C/C=C/C=C(C)/C=C/C=C(C)/C=C/C2=C(C)C[C@@H](O)CC2(C)C)C(C)(C)CCC1` [BETA-CRYPTOXANTHIN] was 24.88%.
Turning to `C[N+](C)(C)CC(=O)O` [BETAINE], the “Relative changed percentage (%)” value is recorded as −18.83%.
For the molecule `O=C(O)CCCC[C@@H]1SC[C@@H]2NC(=O)N[C@@H]21` [BIOTIN, POWDER,, BIOTIN], the “Relative changed percentage (%)” value was 36.45%.
On to `[Cl][Cd][Cl]` [CADMIUM CIILORIDE/cadmium, CADMIUM CIILORIDE], for which the “Relative changed percentage (%)” value amounted to 32.11%.
Same read-out and setting: the value for `C=C1CC[C@H](O)C/C1=C/C=C1\CCC[C@]2(C)[C@@H]([C@H](C)CCCC(C)C)CC[C@@H]12` [CHOLECALCIFEROL CRYSTALLINE, CHOLECALCIFEROL] was 25.45%; that for `CC(C)CCC[C@@H](C)[C@H]1CC[C@H]2[C@@H]3CC=C4C[C@@H](O)CC[C@]4(C)[C@H]3CC[C@]12C` [CHOLESTEROL] was −31.89%; that for `O=S(=O)([O-])[O-].[Cu+2]` [COPPER(II) SULFATE, ANHYDROUS,/copper, COPPER(II) SULFATE, ANHYDROUS] was 51.65%.
On the same count and under the same terms, the value for `C[C@]12CCC(=O)C=C1CC[C@@H]1[C@@H]2C(=O)C[C@@]2(C)[C@H]1CC[C@]2(O)C(=O)CO` [CORTISONE] was −12.29%; that for `Nc1cc[nH]c(=O)n1` [CYTOSINE] was 74.6228%; that for `O=C(/C=C/c1ccc(O)c(O)c1)OCCc1ccccc1` [Caffeic acid phenethyl ester] was 43.85%.
Consider `Cn1c(=O)c2c(ncn2C)n(C)c1=O` [Caffeine], for which the “Relative changed percentage (%)” value came to 170.0384%.
In the case of `O=C([O-])[O-].[Ca+2]` [Calcium Carbonate], the “Relative changed percentage (%)” value is on record as −8.75%.
The same measure, in the same setting: then `O=C([O-])CC(O)(CC(=O)[O-])C(=O)[O-].O=C([O-])CC(O)(CC(=O)[O-])C(=O)[O-].[Ca+2].[Ca+2].[Ca+2]` [Calcium citrate], with −14.58%; and `O=C([O-])[C@@H](O)[C@@H](O)[C@H](O)[C@@H](O)C(=O)[O-].[Ca+2]` [Calcium d-glucarate], with −12.14%; and `COc1cc(CNC(=O)CCCC/C=C/C(C)C)ccc1O` [Capsaicin], with 1.661%.
Still for that read-out and setting: then `C[N+](C)(C)CCO.[Cl-]` [Choline Chloride], with −41.11%; and `[Cl][Cr]([Cl])[Cl]` [Chromium Chloride], with −35.28%.
Still for that read-out and setting: then `O=C(O)CC(O)(CC(=O)O)C(=O)O` [Citric Acid], with −36.8%; and `COC1=C(OC)C(=O)C(C/C=C(\C)CC/C=C(\C)CC/C=C(\C)CC/C=C(\C)CC/C=C(\C)CC/C=C(\C)CC/C=C(\C)CC/C=C(\C)CC/C=C(\C)CCC=C(C)C)=C(C)C1=O` [CoQ-10], with 26.54%.
In the case of `CCCCC[C@H](O)CC(=O)CCc1ccc(O)c(OC)c1` [Compound 6-gingerol, 6-gingerol], the “Relative changed percentage (%)” value was determined as 42.62%.
The same measure, in the same setting: then `O=S(=O)([O-])[O-].[Cu+2]` [Copper sulfate], with −26.32%; and `CN(CC(=O)O)C(=N)N` [Creatine], with −40.99%; and `O=C(CO)[C@@H](O)[C@H](O)[C@H](O)CO` [D(−)FRUCTOSE], with −25.52%.
Take `Cl.N[C@H]1C(O)O[C@H](CO)[C@@H](O)[C@@H]1O` (stereo partly drawn) [D-(+)-Glucosamine Hydrochloride]: the “Relative changed percentage (%)” value (Hydrochloride) is recorded as −38.23%.
`O=C[C@H](O)[C@@H](O)[C@H](O)[C@H](O)C(=O)O` [D-Glucuronic Acid]: the “Relative changed percentage (%)” value is recorded as −45.8%.
For the molecule `O.OC[C@H]1O[C@@H](O[C@H]2[C@H](O)[C@@H](O)C(O)O[C@@H]2CO)[C@H](O)[C@@H](O)[C@H]1O` (stereo partly drawn) [D-LACTOSE MONOHYDRATE], the “Relative changed percentage (%)” value stood at 22.47%.
Consider `N[C@H]1C(O)O[C@H](CO)[C@@H](O)[C@@H]1OS(=O)(=O)O` (stereo partly drawn) [D-glucosamine 3-sulfate], for which the “Relative changed percentage (%)” value is given as 9.801%.
In the case of `O=P([O-])([O-])O.[K+].[K+]` [Dipotassium Phosphate], the “Relative changed percentage (%)” value is listed as −5.393%.
The same measure, in the same setting: then `CC/C=C\C/C=C\C/C=C\C/C=C\C/C=C\C/C=C\CCC(=O)O` [Docosahexaenoic Acid], with −29.89%; and `CC/C=C\C/C=C\C/C=C\C/C=C\C/C=C\CCCCCC(=O)O` [Docosapentaenoic acid], with −19.39%; and `C=C1CC[C@H](O)C/C1=C/C=C1\CCC[C@]2(C)[C@@H]([C@H](C)/C=C/[C@H](C)C(C)C)CC[C@@H]12` [ERGOCALCIFEROL], with 16.01%.
`C[C@]12CC[C@@H]3c4ccc(O)cc4CC[C@H]3[C@@H]1C[C@@H](O)[C@@H]2O` [ESTRIOL]: the “Relative changed percentage (%)” value is on record as 2.789%.
The same measure, in the same setting: then `C[C@]12CC[C@@H]3c4ccc(O)cc4CC[C@H]3[C@@H]1CCC2=O` [ESTRONE], with 25.0199%.
With `CCCCCCCC/C=C\CCCCCCCCCCCC(=O)O` [Erucic acid], the “Relative changed percentage (%)” value came out at 10.71%.
On the same count and under the same terms, then `NS(=O)(=O)c1cc(C(=O)O)c(NCc2ccco2)cc1Cl` [FUROSEMIDE/LASIX, FUROSEMIDE, reference compound], with 29.01%.

For the origin of these results see patent US20250221953A1 (The University of Chicago, priority 2022, published 2025).
